From PMC10373466 (ACS Omega, 2023)

Target: hAChE (Homo sapiens, UniProt P22303)
Test: In vitro AChE inhibition assay
Format: biochemical
Conditions: in vitro AChE inhibition IC50 ± SD, Ellman method, n = 3

Sequence of hAChE (P22303 32-614): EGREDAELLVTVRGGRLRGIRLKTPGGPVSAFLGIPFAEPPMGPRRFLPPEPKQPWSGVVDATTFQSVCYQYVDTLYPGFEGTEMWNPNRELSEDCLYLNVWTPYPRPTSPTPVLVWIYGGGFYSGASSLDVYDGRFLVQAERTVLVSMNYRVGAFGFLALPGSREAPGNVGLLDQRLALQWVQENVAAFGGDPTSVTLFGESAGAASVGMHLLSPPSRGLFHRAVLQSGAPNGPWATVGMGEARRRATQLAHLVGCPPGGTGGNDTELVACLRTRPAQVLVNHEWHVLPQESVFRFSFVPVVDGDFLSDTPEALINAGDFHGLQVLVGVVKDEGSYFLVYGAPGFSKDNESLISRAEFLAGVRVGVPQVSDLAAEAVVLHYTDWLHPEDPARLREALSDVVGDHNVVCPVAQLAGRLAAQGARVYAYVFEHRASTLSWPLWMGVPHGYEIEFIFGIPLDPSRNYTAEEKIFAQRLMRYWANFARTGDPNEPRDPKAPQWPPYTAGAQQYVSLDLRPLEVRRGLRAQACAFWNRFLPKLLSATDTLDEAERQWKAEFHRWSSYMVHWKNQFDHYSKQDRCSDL

SMILES: COc1ccc(S(=O)(=O)Oc2ccc3c(c2)Oc2nc4c(c(N)c2C3c2cccc([N+](=O)[O-])c2)CCCC4)cc1 (centres unmarked) [4h, 11-Amino-12-(3-nitrophenyl)-7,9,10,12-tetrahydro-8H-chromeno[2,3-b]quinolin-3-yl-4-methoxybenzenesulfonate]
- IC50: 1.53 ± 0.07 µM

SMILES: COc1ccccc1C1c2ccc(O)cc2Oc2nc3c(c(N)c21)CCCC3 (centres unmarked) [3e, 11-Amino-12-(2-methoxyphenyl)-7,9, 10, 12-tetrahydro-8H-chromeno[2,3-b]quinolin-3-ol]
- IC50: 5.88 ± 0.31 µM

SMILES: Nc1c2c(nc3c1C(c1cccc(Br)c1)c1ccc(OS(=O)(=O)c4ccccc4)cc1O3)CCCC2 (centres unmarked) [4p, 11-Amino-12-(3-bromophenyl)-7,9,10,12-tetrahydro-8H-chromeno[2,3-b]quinolin-3-yl-benzenesulfonate]
- IC50: 1.34 ± 0.07 µM

SMILES: Nc1c2c(nc3c1C(c1cccc(Br)c1)c1ccc(OCC(=O)c4ccc(Cl)cc4)cc1O3)CCCC2 (centres unmarked) [5a, 2-[11-Amino-12-(3-bromophenyl)-7,9,10,12-tetrahydro-8H-chromeno[2,3-b]quinolin-3-yl]oxy-1-(4-chlorophenyl)ethan-1-one]
- IC50: 0.99 ± 0.05 µM

SMILES: Nc1c2c(nc3c1C(c1ccc(Cl)c(Cl)c1)c1ccc(O)cc1O3)CCCC2 (centres unmarked) [3d, 11-Amino-12-(3,4-dichlorophenyl)-7,9,10,12-tetrahydro-8H-chromeno[2,3-b]quinolin-3-ol]
- IC50: 5.31 ± 0.28 µM

SMILES: COc1ccc(S(=O)(=O)Oc2ccc3c(c2)Oc2nc4c(c(N)c2C3c2ccccc2OC)CCCC4)cc1 (centres unmarked) [4j, 11-Amino-12-(2-methoxyphenyl)-7,9,10,12-tetrahydro-8H-chromeno[2,3-b]quinolin-3-yl-4-methoxybenzenesulfonate]
- IC50: 5.16 ± 0.22 µM

SMILES: Cc1ccc(S(=O)(=O)Oc2ccc3c(c2)Oc2nc4c(c(N)c2C3c2cccc(Br)c2)CCCC4)cc1 (centres unmarked) [4k, 11-Amino-12-(3-bromophenyl)-7,9,10,12-tetrahydro-8H-chromeno[2,3-b]quinolin-3-yl-4-methylbenzenesulfonate]
- IC50: 9.35 ± 0.4 µM

SMILES: COc1ccccc1C1c2ccc(OS(=O)(=O)c3ccc(C)cc3)cc2Oc2nc3c(c(N)c21)CCCC3 (centres unmarked) [4o, 11-Amino-12-(2-methoxyphenyl)-7,9,10,12-tetrahydro-8H-chromeno[2,3-b]quinolin-3-yl-4-methylbenzenesulfonate]
- IC50: 1.03 ± 0.04 µM

SMILES: COc1cccc(C2c3ccc(OS(=O)(=O)c4ccc(F)cc4)cc3Oc3nc4c(c(N)c32)CCCC4)c1 (centres unmarked) [4b, 11-Amino-12-(3-methoxyphenyl)-7,9,10,12-tetrahydro-8H-chromeno[2,3-b]quinolin-3-yl-4-fluorobenzenesulfonate]
- IC50: 13.5 ± 0.72 µM

SMILES: Nc1c2c(nc3c1C(c1cccc(Br)c1)c1ccc(OS(=O)(=O)c4ccc(F)cc4)cc1O3)CCCC2 (centres unmarked) [4a, 11-Amino-12-(3-bromophenyl)-7,9,10,12-tetrahydro-8H-chromeno[2,3-b]quinolin-3-yl-4-fluorobenzenesulfonate]
- IC50: 3.88 ± 0.21 µM

SMILES: Nc1c2c(nc3c1C(c1cccc([N+](=O)[O-])c1)c1ccc(OCC(=O)c4ccccc4)cc1O3)CCCC2 (centres unmarked) [5h, 2-[11-Amino-12-(3-nitrophenyl)-7,9,10,12-tetrahydro-8H-chromeno[2,3-b]quinolin-3-yl]oxy-1-phenylethan-1-one]
- IC50: 10.2 ± 0.48 µM

SMILES: COc1cccc(C2c3ccc(OCC(=O)c4ccc(Cl)cc4)cc3Oc3nc4c(c(N)c32)CCCC4)c1 (centres unmarked) [5b, 2-[11-Amino-12-(3-methoxyphenyl)-7,9,10,12-tetrahydro-8H-chromeno[2,3-b]quinolin-3-yl]oxy-1-(4-chlorophenyl)ethan-1-one]
- IC50: 6.01 ± 0.3 µM

SMILES: COc1cccc(C2c3ccc(OCC(=O)c4ccccc4)cc3Oc3nc4c(c(N)c32)CCCC4)c1 (centres unmarked) [5g, 2-[11-Amino-12-(3-methoxyphenyl)-7,9,10,12-tetrahydro-8H-chromeno[2,3-b]quinolin-3-yl]oxy-1-phenylethan-1-one]
- IC50: 31 ± 1.47 µM

SMILES: COc1ccccc1C1c2ccc(OCC(=O)c3ccccc3)cc2Oc2nc3c(c(N)c21)CCCC3 (centres unmarked) [5j, 2-[11-Amino-12-(2-methoxyphenyl)-7,9,10,12-tetrahydro-8H-chromeno[2,3-b]quinolin-3-yl]oxy-1-phenylethan-1-one]
- IC50: 2.48 ± 0.12 µM

SMILES: Nc1c2c(nc3c1C(c1cccc(Br)c1)c1ccc(OCC(=O)c4ccccc4)cc1O3)CCCC2 (centres unmarked) [5f, 2-[11-Amino-12-(3-bromophenyl)-7,9,10,12-tetrahydro-8H-chromeno[2,3-b]quinolin-3-yl]oxy-1-phenylethan-1-one]
- IC50: 1.14 ± 0.054 µM

SMILES: Nc1c2c(nc3c1C(c1cccc(Br)c1)c1ccc(O)cc1O3)CCCC2 (centres unmarked) [3a, 11-Amino-12-(3-bromophenyl)-7,9,10,12-tetrahydro-8H-chromeno[2,3-b]quinolin-3-ol]
- IC50: 3.48 ± 0.19 µM

SMILES: COc1ccc(S(=O)(=O)Oc2ccc3c(c2)Oc2nc4c(c(N)c2C3c2ccc(Cl)c(Cl)c2)CCCC4)cc1 (centres unmarked) [4i, 11-Amino-12-(3,4-dichlorophenyl)-7,9,10,12-tetrahydro-8H-chromeno[2,3-b]quinolin-3-yl-4-methoxybenzenesulfonate]
- IC50: 2.2 ± 0.1 µM

SMILES: Cc1ccc(S(=O)(=O)Oc2ccc3c(c2)Oc2nc4c(c(N)c2C3c2cccc([N+](=O)[O-])c2)CCCC4)cc1 (centres unmarked) [4m, 11-Amino-12-(3-nitrophenyl)-7,9,10,12-tetrahydro-8H-chromeno[2,3-b]quinolin-3-yl-4-methylbenzenesulfonate]
- IC50: 11.1 ± 0.48 µM

SMILES: COc1ccc(S(=O)(=O)Oc2ccc3c(c2)Oc2nc4c(c(N)c2C3c2cccc(Br)c2)CCCC4)cc1 (centres unmarked) [4f, 11-Amino-12-(3-bromophenyl)-7,9,10,12-tetrahydro-8H-chromeno[2,3-b]quinolin-3-yl-4-methoxybenzenesulfonate]
- IC50: 0.73 ± 0.03 µM

SMILES: COc1cccc(C2c3ccc(OS(=O)(=O)c4ccc(C)cc4)cc3Oc3nc4c(c(N)c32)CCCC4)c1 (centres unmarked) [4l, 11-Amino-12-(3-methoxyphenyl)-7,9,10,12-tetrahydro-8H-chromeno[2,3-b]quinolin-3-yl-4-methylbenzenesulfonate]
- IC50: 2.62 ± 0.11 µM

SMILES: COc1cccc(C2c3ccc(O)cc3Oc3nc4c(c(N)c32)CCCC4)c1 (centres unmarked) [3b, 11-Amino-12-(3-methoxyphenyl)-7,9,10,12-tetrahydro-8H-chromeno[2,3-b]quinolin-3-ol]
- IC50: 26.7 ± 1.42 µM

SMILES: Nc1c2c(nc3c1C(c1cccc([N+](=O)[O-])c1)c1ccc(O)cc1O3)CCCC2 (centres unmarked) [3c, 11-Amino-12-(3-nitrophenyl)-7,9,10,12-tetrahydro-8H-chromeno[2,3-b]quinolin-3-ol]
- IC50: 15.1 ± 0.8 µM

SMILES: Nc1c2c(nc3c1C(c1cccc([N+](=O)[O-])c1)c1ccc(OS(=O)(=O)c4ccccc4)cc1O3)CCCC2 (centres unmarked) [4r, 11-Amino-12-(3-nitrophenyl)-7,9,10,12-tetrahydro-8H-chromeno[2,3-b]quinolin-3-yl-benzenesulfonate]
- IC50: 5.5 ± 0.28 µM

SMILES: COc1ccccc1C1c2ccc(OS(=O)(=O)c3ccc(F)cc3)cc2Oc2nc3c(c(N)c21)CCCC3 (centres unmarked) [4e, 11-Amino-12-(2-methoxyphenyl)-7,9,10,12-tetrahydro-8H-chromeno[2,3-b]quinolin-3-yl-4-fluorobenzenesulfonate]
- IC50: 22.4 ± 1.19 µM

SMILES: COc1cccc(C2c3ccc(OS(=O)(=O)c4ccccc4)cc3Oc3nc4c(c(N)c32)CCCC4)c1 (centres unmarked) [4q, 11-Amino-12-(3-methoxyphenyl)-7,9,10,12-tetrahydro-8H-chromeno[2,3-b]quinolin-3-yl-benzenesulfonate]
- IC50: 2.45 ± 0.12 µM

SMILES: Nc1c2c(nc3c1C(c1ccc(Cl)c(Cl)c1)c1ccc(OS(=O)(=O)c4ccc(F)cc4)cc1O3)CCCC2 (centres unmarked) [4d, 11-Amino-12-(3,4-dichlorophenyl)-7,9,10,12-tetrahydro-8H-chromeno[2,3-b]quinolin-3-yl-4-fluorobenzenesulfonate]
- IC50: 6.09 ± 0.32 µM
